The assay concerns Boophilus microplus, Biarra-Stamm. Put plainly: In vitro tick test: inhibition of egg laying after dipping adult engorged female ticks. Conditions: Rhipicephalus microplus, 480 h, resistant strain, ticks dipped for 1 minute, read after 20 days, read-out: 50 % Hemmung bei einer Wirkstoff-konzentration in ppm a.i.von. From the text: Lösungsmittel: 35 Gewichtsteile Ethylenglykolmonomethylether 35 Gewichtsteile Nonylphenolpolyglykolether
Zwecks Herstellung einer geeigneten Formulierung vermischt man drei Gewichtsteile Wirkstoff mit sieben Teilen des oben angegebenen Lösungsmittel-Emulgator-Gemisches und verdünnt das so erhaltene Emulsionskonzentrat mit Wasser auf die jeweils gewünschte Konzentration.
In diese Wirkstoffzubereitungen werden adulte, vollgesogene Zeckenweibchen der Art Boophilus microplus (resistent) eine Minute lang getaucht. Nach dem Tauchen von je 10 weiblichen Exemplaren überführt man diese in Petrischalen, deren Boden mit einer entsprechend großen Filterscheibe belegt ist.
Nach 20 Tagen wird die Wirksamkeit der Wirkstoffzubereitung bestimmt durch Ermittlung der Hemmung der Eiablage gegenüber unbehandelten Kontrollzecken. Die Wirkung drückt man in Prozent aus, wobei 100 % bedeutet, daß keine Eier mehr abgelegt wurden und 0 % besagt, daß die Zecken Eier in normaler Menge ablegten.
Untersuchter Wirkstoff, geprüfte Konzentration, getestete Parasiten und erhaltene Befunde gehen aus der folgenden Tabelle 1 hervor.

Results on one molecule are retold here after EP0073960A1, “2-Arylhydrazino-2-imidazolines, their acyl derivatives, process for their preparation and their use in the control of endoparasites and ectoparasites” (BAYER AG, priority 1981, dated 1983).

Turning to `Cc1cc(Cl)ccc1NC(=S)N(C)C` [Chloromethiuron], the IC50 is more than 5000 µg/mL.
